# In patent US20040116420A1 (priority 2001, published 2004):
# Experiments:
# Vero cells = experiment: Cytotoxicity, Vero cells, Alamar Blue; type: cell-based; details: 25 μM, 20 hours
# Description: An Assay Method for Cytotoxicity
# The Vero cells were sown on a 96-well plate and then cultured overnight. The culture supernatant was removed, and 200 μl of 2% FBS-DMEM comprising 25 μM of the test compound was added. In this case, a substance to which 2% FBS-DMEM not comprising any test compound had been added was determined as a control. These cells were incubated in the presence of 5% CO2 at 37° C. for 20 hours. Alamar Blue (20 μl) was added to the cells, and cells were incubated for about 6 hours until the color of the control changed. The ratio of the absorbance was assayed using a microplate reader for absorption, and the value relative to the control was determined to be the ratio of living cells.
# HSV-1 protease = target: T1, HSV-1 protease (Human herpesvirus 1, UniProt P10210); experiment: Enzymatic assay for HSV-1 protease (assembly) inhibitor, fluorescence polarization; type: biochemical; details: read-out: HSV-1 Enzyme inhibition IC50
# T1 construct: 6xHis (N); made in house; host or cells: baculovirus expression system
# T1 sequence (P10210 1-247): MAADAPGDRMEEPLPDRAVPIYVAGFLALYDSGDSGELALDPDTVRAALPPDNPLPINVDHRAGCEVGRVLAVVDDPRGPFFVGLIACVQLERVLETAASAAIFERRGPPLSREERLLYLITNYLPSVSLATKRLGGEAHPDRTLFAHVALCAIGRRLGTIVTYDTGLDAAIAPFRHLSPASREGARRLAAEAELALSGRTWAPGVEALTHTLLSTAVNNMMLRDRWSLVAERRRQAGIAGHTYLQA
# Description: An enzymatic assay method for an HSV-1 protease (assembly) inhibitor
# The activity of an assembly protease was determined by fluorescence polarization. Biotin-gamma-amino butyrate-[…]-DTAF was used as a fluorescent substrate in accordance with an HSV-1 release and cleavage site. […] Changes in the sizes of fluorescent substrate molecules that increased with the use of avidin as a reaction terminator were assayed by fluorescence polarization.
# The test compound was dissolved in DMF, and the resultant was diluted 5-fold with an assay buffer. 6.5 μl thereof was added to wells of a 96-well plate (a U-bottomed 96-well plate, Coster) that had previously been blocked with a blocking solution (10 mM Tris-HCl (pH 8.0), 150 mM sodium chloride, 0.05% Tween 20, 1 mg/ml of BSA). The enzyme was diluted to 21.3 μg/ml with an assay buffer (1M sodium citrate, 50 mM sodium phosphate (pH 7.4), 100 mM sodium chloride, 20% glycerol, 2 mM TCEP), and 48.5 μl of the resultant was added to each well. The plate was incubated at room temperature for 30 minutes, and 10 μl of 62.5 μg/ml substrate solution was then added to each well. The plate was incubated at room temperature for 60 minutes, and 50 μl of 2 mg/ml avidin phosphate buffer solution (50 mM sodium phosphate, 100 mM sodium chloride (pH 7.4)) was added to each well. The activity was determined in comparison with a compound without protease inhibitor using a microplate reader for fluorescence polarization.
# HSV-1 protease was purified from a vaculovirus that had expressed a DNA construct encoding the reading frame for HSV-1UL26. This construct had further encoded 6 histidine residues at the amino terminus of the protease. These additional histidine residues impart affinity ligands purified by nickel-nitriloacetic acid-agarose (Qiagen). The purified protease was stored as a stock solution for a 20 mM HEPES buffer (pH 8.5, containing 20% v/v glycerin). This stock solution was diluted with an assay buffer and then used in the enzyme reaction.
# In accordance with the cleavage specificity of the HSV-1 protease at the “release site” of the assembled protein, a specific substrate was synthesized (Diianni et al., J. Biol. Chem. 268, 2048 (1993)). This assembly protein-release site had the sequence • HTYLQA*SEKFKMW • , and the substrate used was biotin-gamma-amino butyrate-HTYLQA*SERFRIK-DTAF. This is a standard method for peptide synthesis, for example, as in the a method described in “The Practice of Peptide Synthesis” (Bodansky and Bodansky (1984)). The product was stored as a 2.5 mg/ml stock solution in DMF. The resultant was diluted to 62.5 μg/ml with a phosphate buffer (50 mM sodium phosphate, 100 mM sodium chloride, (pH 7.4)) immediately before its use.
# An assay buffer (1M sodium citrate, 50 mM sodium phosphate (pH 7.4), 100 mM sodium chloride, 20% glycerol, 2 mM TCEP) was used to dilute a stock solution for the enzyme and that for the inhibitor.
# HSV-1 = experiment: Antiviral activity, HSV-1 in Vero cells, plaque method; type: cell-based; details: Human alphaherpesvirus 1, 20 hours, 90% inhibition of plaque formation
# Description: An Assay Method for Antiviral Activity These complementary assay methods examine the capacity of a compound to inhibit the generation of new viruses and to inhibit the toxicity of the compound against the host cell. Toxicity indirectly decreases the generation of viruses. Thus, it is important to simultaneously conduct both assays in order to directly compare the results. The Vero cells were sown on a 96-well plate and then cultured overnight. The culture supernatant was removed, and 100 μl of 2% FBS-DMEM containing 50,000 plaque-forming units (hereinafter abbreviated as “pfu”) of HSV-1 was added. A viral solution was removed and 200 μl of 2% FBS-DMEM comprising a test compound was added. In this case, a substance to which 2% FBS-DMEM not comprising any test compound had been added was determined as a control. These infected cells were incubated in the presence of 5% CO2 at 37° C. for 20 hours, and the medium was once allowed to freeze at −80° C. The culture solution was dissolved, and the amount of viruses in the culture solution was assayed by the plaque method. The concentration of the test compound when it inhibited 90% of plaque formation relative to the control was determined to be EC 90.
Compound,Cell viability (% of control) (Vero cells),IC50 (HSV-1 protease),EC90 (HSV-1)
"Cc1c(NC(=O)OC(C)(C)C)ccc2nc(N[C@H](C(=O)NCc3cccnc3)C(C)C)oc(=O)c12 [Compound No.24, (5-Methyl-2-{2-methyl-1S-[(pyridin-3-ylmethyl)-carbamoyl]-propylamino}-4-oxo-4H-benzo[d][1,3]oxazin-6-yl)-carbamic acid tert-butyl ester]",99.5%,> 20 µM,> 25 µM
"Cc1c(NC(=O)OC(C)(C)C)ccc2nc(N[C@H](C(=O)NCc3ccncc3)C(C)C)oc(=O)c12 [Compound No.25, (5-Methyl-2-{2-methyl-1S-[(pyridin-4-ylmethyl)-carbamoyl]-propylamino}-4-oxo-4H-benzo[d][1,3]oxazin-6-yl)-carbamic acid tert-butyl ester]",100.0%,> 20 µM,> 25 µM
"Cc1c(NC(=O)OC(C)(C)C)ccc2nc(N[C@H](C(=O)NCCc3ccccn3)C(C)C)oc(=O)c12 [Compound No.26, {5-Methyl-2-[2-methyl-1S-(2-pyridin-2-ylethylcarbamoyl)-propylamino]-4-oxo-4H-benzo[d][1,3]oxazin-6-yl}-carbamic acid tert-butyl ester]",107.0%,3.2 µM,13 µM
"Cc1c(NC(=O)OC(C)(C)C)ccc2nc(N[C@@H](CC3CCCCC3)C(=O)NCc3cccnc3)oc(=O)c12 [Compound No.27, (2-{2-Cyclohexyl-1S-[(pyridin-3-ylmethyl)-carbamoyl]-ethylamino}-5-methyl-4-oxo-4H-benzo[d][1,3]oxazin-6-yl)-carbamic acid tert-butyl ester]",103.0%,8.7 µM,> 25 µM
"Cc1c(NC(=O)OC(C)(C)C)ccc2nc(N[C@@H](CC3CCCCC3)C(=O)NCc3ccncc3)oc(=O)c12 [Compound No.28, (2-{2-Cyclohexyl-1S-[(pyridin-4-ylmethyl)-carbamoyl]-ethylamino}-5-methyl-4-oxo-4H-benzo[d][1,3]oxazin-6-yl)-carbamic acid tert-butyl ester]",70.0%,4.4 µM,< 6.3 µM
"Cc1c(NC(=O)OC(C)(C)C)ccc2nc(N[C@@H](CC3CCCCC3)C(=O)NCCc3ccccn3)oc(=O)c12 [Compound No.29, {2-[2-Cyclohexyl-1S-(2-pyridin-2-ylethylcarbamoyl)-ethylamino]-5-methyl-4-oxo-4H-benzo[d][1,3]oxazin-6-yl}-carbamic acid tert-butyl ester]",110.0%,19.5 µM,24.3 µM
"Cc1c(NC(=O)OC(C)(C)C)ccc2nc(N[C@@H](Cc3ccccc3)C(=O)NCc3cccnc3)oc(=O)c12 [Compound No.30, (5-Methyl-4-oxo-2-{2-phenyl-1S-[(pyridin-3-ylmethyl)-carbamoyl]-ethylamino}-4H-benzo[d][1,3]oxazin-6-yl)-carbamic acid tert-butyl ester]",98.6%,0.7 µM,23.8 µM
"Cc1c(NC(=O)OC(C)(C)C)ccc2nc(N[C@@H](Cc3ccccc3)C(=O)NCc3ccncc3)oc(=O)c12 [Compound No.31, (5-Methyl-4-oxo-2-{2-phenyl-1S-[(pyridin-4-ylmethyl)-carbamoyl]-ethylamino}-4H-benzo[d][1,3]oxazin-6-yl)-carbamic acid tert-butyl ester]",108.0%,> 20 µM,> 25 µM
"Cc1c(NC(=O)OC(C)(C)C)ccc2nc(N[C@H](C(=O)NCc3ccccn3)C(C)(C)C)oc(=O)c12 [Compound No.32, (2-{2,2-dimethyl-1S-[(pyridin-2-ylmethyl)-carbamoyl]-propylamino}-5-methyl-4-oxo-4H-benzo[d][1,3]oxazin-6-yl)-carbamic acid tert-butyl ester]",111.0%,19.6 µM,21.5 µM
"Cc1c(NC(=O)CCCNC(=O)c2cccs2)ccc2nc(N[C@@H](C)C(=O)N(C)CCc3ccccn3)oc(=O)c12 [Compound No.218, Thiophene-2-carboxylic acid [3-(5-methyl-2-{1S-[methyl-(2-pyridin-2-yl-ethyl)-carbamoyl]-ethylamino}-4-oxo-4H-benzo[d][1,3]oxazin-6-ylcarbamoyl)-propyl]-amide]",–,0.4 µM,> 12.5 µM
"Cc1c(NC(=O)CCCNC(=O)c2ccc(C(F)(F)F)cc2)ccc2nc(N[C@@H](C)C(=O)N(C)CCc3ccccn3)oc(=O)c12 [Compound No.219, N-[3-(5-Methyl-2-{1S-[methyl-(2-pyridin-2-yl-ethyl)-carbamoyl]-ethylamino}-4-oxo-4H-benzo[d][1,3]oxazin-6-ylcarbamoyl)-propyl]-4-trifluoromethyl-benzamide]",–,0.9 µM,> 12.5 µM
"CCCCc1ccc(C(=O)NCCCC(=O)Nc2ccc3nc(N[C@@H](C)C(=O)N(C)CCc4ccccn4)oc(=O)c3c2C)cc1 [Compound No.220, 4-Butyl-N-[3-(5-methyl-2-{1S-[methyl-(2-pyridin-2-yl-ethyl)-carbamoyl]-ethylamino}-4-oxo-4H-benzo [d][1,3]oxazin-6-ylcarbamoyl)-propyl]-benzamide]",–,0.5 µM,> 12.5 µM
"Cc1c(NC(=O)CCNC(=O)OC(C)(C)C)ccc2nc(N(C)CC(=O)N(C)CCc3ccccn3)oc(=O)c12 [Compound No.226, {2-[5-methyl-2-(methyl-{[methyl-(2-pyridin-2-yl-ethyl)-carbamoyl]-methyl}-amino)-4-oxo-4H-benzo[d][1,3]oxazin-6-ylcarbamoyl]-ethyl}-carbamic Acid Tert-Butyl Ester]",–,1 µM,> 20 µM
"Cc1c(NC(=O)CCNC(=O)OC(C)(C)C)ccc2nc(N[C@H](C)C(=O)N(C)CCc3ccccn3)oc(=O)c12 [Compound No.227, [2-(5-Methyl-2-{1R-[methyl-(2-pyridin-2-yl-ethyl)-carbamoyl]-ethylamino}-4-oxo-4H-benzo[d][1,3]oxazin-6-ylcarbamoyl)-ethyl]-carbamic acid tert-butyl ester]",–,2.4 µM,> 20 µM
"Cc1c(NC(=O)CCNC(=O)OC(C)(C)C)ccc2nc(NCC(=O)N(C)CCc3ccccn3)oc(=O)c12 [Compound No.228, {2-[5-Methyl-2-({[methyl-(2-pyridin-2-yl-ethyl)-carbamoyl]-methyl}-amino)-4-oxo-4H-benzo[d][1,3]oxazin-6-ylcarbamoyl]-ethyl}-carbamic acid tert-butyl ester]",–,0.7 µM,> 20 µM
"Cc1c(NC(=O)OC(C)(C)C)ccc2nc(NC(C)(C)C(=O)N(C)CCc3ccccc3)oc(=O)c12 [compound 229, {5-Methyl-2-[1-methyl-1-(methyl-phenethyl-carbamoyl)-ethylamino]-4-oxo-4H-benzo[d][1,3]oxazin-6-yl}-carbamic acid tert-butyl ester, reference compound]",–,12.2 µM,6.6 µM
